Laboratory results: patent US10781224B2, “Bis(oxymethyl)phosphinic acid and biogenic metal salts thereof as regulators of plant growth and development” (priority 2016, dated 2020)

Tests used:
Format in all cases: in vivo
[1] = system: corn (Krasnodar 385 MV variety); assay: Corn seed treatment with BHMPA salts: germination energy and germination rate
Protocol: (§1) Control—Soaking Seeds in Water;
(§2) Experimental versions—soaking seeds in BHMPA solutions and solutions of BHMPA Ca, Mg, Na, Co, Mn, Cu, and Zn salts at 1·10^−6-1·10^−12% concentrations (doses). The studies were conducted in laboratory in Petri dishes; seed bed—two layers of filter paper. 50 seeds soaked in water (control) and in the solutions of the tested compounds (experimental) were placed into each dish. Wheat, corn, and rice seeds were exposed for one hour.
(§3) Analysis was conducted according to the government standards GOST 12038-84 “Crop seeds. Technical conditions for determining the germination energy and germination rate”, GOST 12044-93 “Crop seeds. Methods for determining disease contamination.”
(§4) Seed germination energy and rate were calculated in percent as an arithmetic mean of the four experimental results (germination energy on the 4th day, wheat germination on the 8th day, rice and corn germination—on the 7th day). Germination was determined based on the germinating power indicators (length of the roots and sprouts and their wet and dry mass per 100 shoots).
(§5) The effect of pre-sowing seed treatment with the claimed BHMPA salts of biogenic metals was studied on winter wheat (Vershin variety), corn (Krasnodar 385 MV variety), and rice (Diamant variety).

[2] = system: winter wheat (Vershin variety); assay: Winter wheat seed treatment with BHMPA salts: germination energy and germination rate
Protocol: as §1, §2, §3, §4, §5

[3] = system: corn (Krasnodar 385 MV variety); assay: Corn seed treatment with BHMPA salts: germinating power
Protocol: as §2, §4, §5
The above data describe the seed viability only at the initial stage of germination, while the germination ability at the later stage of germination is defined by the initial germinating power. The method for the determination of the germinating power comprises measuring the height of the sprouts and primary roots, as well as the biomass and the dry mass thereof per 100 seedlings. [M. A. Kartuzova. Initial Germinating Power as Method of Biological Assessment of Seed Quality. Selection and Seed Farming, #2, 1953].

[4] = comparative study vs Melaphen, 1·10^−7% solution
[5] = winter wheat Vershin, 1·10^−6% solution
[6] = winter wheat Vershin, 1·10^−7% solution
[7] = winter wheat Vershin, 1·10^−8% solution
[8] = winter wheat Vershin, 1·10^−9% solution
[9] = winter wheat Vershin, 1·10^−10% solution
[10] = winter wheat Vershin, 1·10^−11% solution
[11] = winter wheat Vershin, 1·10^−12% solution
[12] = winter wheat, comparative study vs Melaphen, 1·10^−10% solution
[13] = corn seeds, solution concentration 1 · 10^−6%, cobalt salt of BHMPA
[14] = corn seeds, solution concentration 1 · 10^−7%, cobalt salt of BHMPA
[15] = corn seeds, solution concentration 1 · 10^−8%, cobalt salt of BHMPA
[16] = corn seeds, solution concentration 1 · 10^−9%, cobalt salt of BHMPA
[17] = corn seeds, solution concentration 1 · 10^−10%, cobalt salt of BHMPA
[18] = corn seeds, solution concentration 1 · 10^−11%, cobalt salt of BHMPA
[19] = corn seeds, solution concentration 1 · 10^−12%, cobalt salt of BHMPA

SMILES: O.O.O=P([O-])(CO)CO.O=P([O-])(CO)CO.[Co+2] [Co-salt, Cobalt BHMPA Salt]
- Germination energy ([1]; 1·10^−6% solution): 80.0%
- Germination rate ([1]; 1·10^−6% solution): 82.2%
- Germination energy ([1]; 1·10^−7% solution): 84.3%
- Germination rate ([1]; 1·10^−7% solution): 90.0%
- Germination rate ([1]; 1·10^−7% solution, listed as Co): 86.7%
- Germination energy ([1]; 1·10^−8% solution): 82.0%
- Germination rate ([1]; 1·10^−8% solution): 84.7%
- Germination energy ([1]; 1·10^−9% solution): 80.7%
- Germination rate ([1]; 1·10^−9% solution): 83.0%
- Germination energy ([1]; 1·10^−10% solution): 79.2%
- Germination rate ([1]; 1·10^−10% solution): 81.7%
- Germination energy ([1]; 1·10^−11% solution): 78.0%
- Germination rate ([1]; 1·10^−11% solution): 80.8%
- Germination energy ([1]; 1·10^−12% solution): 76.8%
- Germination rate ([1]; 1·10^−12% solution): 79.2%
- Germination energy [1, 4]: 87.0%
- Germination rate [1, 4]: 96.7%
- Germination energy [2, 5]: 89.2%
- Germination rate [2, 5]: 93.0%
- Germination energy [2, 6]: 91.4%
- Germination rate [2, 6]: 94.0%
- Germination energy [2, 7]: 92.8%
- Germination rate [2, 7]: 96.0%
- Germination energy [2, 8]: 94.3%
- Germination rate [2, 8]: 97.3%
- Germination energy [2, 9]: 95.6%
- Germination rate [2, 9]: 98.7%
- Germination energy [2, 10]: 94.7%
- Germination rate [2, 10]: 97.3%
- Germination energy [2, 11]: 92.0%
- Germination rate [2, 11]: 94.7%
- Germination energy [2, 12]: 93.7%
- Germination rate [2, 12]: 97.3%
- optimum concentration for treating corn seeds before sowing ([3]; corn): 1·10^−7%
- Length, root [3, 13]: 5.0 cm
- Length, root, + % to control [3, 13]: 6%
- Length, sprout [3, 13]: 3.2 cm
- Length, sprout, + % to control [3, 13]: 7%
- Mass, dry, root [3, 13]: 1.31 g/100 plantlings
- Mass, dry, root, + % to control [3, 13]: 5%
- Mass, dry, sprout [3, 13]: 1.09 g/100 plantlings
- Mass, dry, sprout, + % to control [3, 13]: 12%
- Mass, wet, root [3, 13]: 9.76 g/100 plantlings
- Mass, wet, root, + % to control [3, 13]: 9%
- Mass, wet, sprout [3, 13]: 7.75 g/100 plantlings
- Mass, wet, sprout, + % to control [3, 13]: 24.5%
- Length, root [3, 14]: 6.2 cm
- Length, root, + % to control [3, 14]: 32%
- Length, sprout [3, 14]: 3.8 cm
- Length, sprout, + % to control [3, 14]: 27%
- Mass, dry, root [3, 14]: 1.44 g/100 plantlings
- Mass, dry, sprout [3, 14]: 1.21 g/100 plantlings
- Mass, dry, sprout, + % to control [3, 14]: 25%
- Mass, wet, root [3, 14]: 10.77 g/100 plantlings
- Mass, wet, root, + % to control [3, 14]: 20%
- Mass, wet, sprout [3, 14]: 9.96 g/100 plantlings
- Mass, wet, sprout, + % to control [3, 14]: 60%
- Length, root [3, 15]: 5.6 cm
- Length, root, + % to control [3, 15]: 19%
- Length, sprout [3, 15]: 3.6 cm
- Length, sprout, + % to control [3, 15]: 20%
- Mass, dry, root [3, 15]: 1.37 g/100 plantlings
- Mass, dry, root, + % to control [3, 15]: 10%
- Mass, dry, sprout [3, 15]: 1.14 g/100 plantlings
- Mass, dry, sprout, + % to control [3, 15]: 17.5%
- Mass, wet, root [3, 15]: 10.17 g/100 plantlings
- Mass, wet, root, + % to control [3, 15]: 13%
- Mass, wet, sprout [3, 15]: 9.00 g/100 plantlings
- Mass, wet, sprout, + % to control [3, 15]: 45%
- Length, root [3, 16]: 5.0 cm
- Length, root, + % to control [3, 16]: 6%
- Length, sprout [3, 16]: 3.5 cm
- Length, sprout, + % to control [3, 16]: 17%
- Mass, dry, root [3, 16]: 1.31 g/100 plantlings
- Mass, dry, root, + % to control [3, 16]: 5%
- Mass, dry, sprout [3, 16]: 1.07 g/100 plantlings
- Mass, dry, sprout, + % to control [3, 16]: 10%
- Mass, wet, root [3, 16]: 10.00 g/100 plantlings
- Mass, wet, root, + % to control [3, 16]: 11%
- Mass, wet, sprout [3, 16]: 7.58 g/100 plantlings
- Mass, wet, sprout, + % to control [3, 16]: 22%
- Length, root [3, 17]: 4.9 cm
- Length, root, + % to control [3, 17]: 4%
- Length, sprout [3, 17]: 3.3 cm
- Length, sprout, + % to control [3, 17]: 10%
- Mass, dry, root [3, 17]: 1.29 g/100 plantlings
- Mass, dry, root, + % to control [3, 17]: 3%
- Mass, dry, sprout [3, 17]: 1.03 g/100 plantlings
- Mass, dry, sprout, + % to control [3, 17]: 6%
- Mass, wet, root [3, 17]: 9.80 g/100 plantlings
- Mass, wet, root, + % to control [3, 17]: 9%
- Mass, wet, sprout [3, 17]: 6.75 g/100 plantlings
- Mass, wet, sprout, + % to control [3, 17]: 8.5%
- Length, root [3, 18]: 4.5 cm
- Length, root, + % to control [3, 18]: −4%
- Length, sprout [3, 18]: 3.0 cm
- Length, sprout, + % to control [3, 18]: 0%
- Mass, dry, root [3, 18]: 1.27 g/100 plantlings
- Mass, dry, root, + % to control [3, 18]: 2%
- Mass, dry, sprout [3, 18]: 0.98 g/100 plantlings
- Mass, dry, sprout, + % to control [3, 18]: 1%
- Mass, wet, root [3, 18]: 9.62 g/100 plantlings
- Mass, wet, root, + % to control [3, 18]: 7%
- Mass, wet, sprout [3, 18]: 6.41 g/100 plantlings
- Mass, wet, sprout, + % to control [3, 18]: 3%
- Length, root [3, 19]: 4.2 cm
- Length, root, + % to control [3, 19]: −11%
- Length, sprout [3, 19]: 2.9 cm
- Length, sprout, + % to control [3, 19]: −3%
- Mass, dry, root [3, 19]: 1.22 g/100 plantlings
- Mass, dry, root, + % to control [3, 19]: −2%
- Mass, dry, sprout [3, 19]: 0.98 g/100 plantlings
- Mass, dry, sprout, + % to control [3, 19]: 1%
- Mass, wet, root [3, 19]: 9.28 g/100 plantlings
- Mass, wet, root, + % to control [3, 19]: 3%
- Mass, wet, sprout [3, 19]: 6.23 g/100 plantlings
- Mass, wet, sprout, + % to control [3, 19]: 0%
- Length, root, + % to control ([3]; corn, 1·10^−7% solution): 32%
- Length, sprout, + % to control ([3]; corn, 1·10^−7% solution): 27%
- Mass, dry, root, + % to control ([3]; corn, 1·10^−7% solution): 15%
- Mass, dry, sprout, + % to control ([3]; corn, 1·10^−7% solution): 25%
- Mass, wet, root, + % to control ([3]; corn, 1·10^−7% solution): 20%
- Mass, wet, sprout, + % to control ([3]; corn, 1·10^−7% solution): 60%
- germination intensity vs control ([3]; corn, 1·10^−11% and 1·10^−12% solutions): no increase in the germination intensity
